Experimental data reported in patent US20200253914A1, “NOVEL FORMULATIONS” (priority 2015, published 2020).
Like-named read-outs stand apart in the source and are kept apart here.

How the values were obtained:
[1] = in water and propylene glycol, after 90 days of storage; cited from earlier work
[2] = tested on: HaCaT cells; assay: HaCaT cell viability assay for skin irritancy potential; assay type: cell-based
Description: Irritancy potential of the individual surfactants as well as formulation chassis (placebo formulations) were evaluated using an in house in vitro test. The method utilizes HaCaT cell viability as a marker for irritation.
Briefly, HaCaT cells were seeded in 96-well plates (Nunc 96 well plate, Cat #165305) at density of 2×10^4 cells per well, and grown overnight before treatments. Test articles were diluted in water to make 10% stock solutions, which were serially diluted in DMEM to twice to the final treatment concentrations. Cells were treated in triplicates by adding 100 μl of serially diluted test articles to each well containing 100 μl fresh medium. After incubation at 37° C., 5% CO2 for 10 minutes in the presence of diluted placebos, cells were then washed with 200 μl of DPBS with Ca^++ and Mg^++ (Life Technologies #14040133) for 3 times. CellTiter-Blue reagent (Promega, G8081, 10× stock solution) was diluted to 1× working solution in cell culture medium and added to cells (100 μl/well). Cells were incubated at 37° C., 5% CO2 for 60 minutes and the cell viability was measured using fluorescent activity (Ex. 560 nm, Em. 590 nm). All treated samples were normalized to the untreated control. Cell viabilities were then used to assess skin irritation potential.
Cell viability studies were conducted to assess the skin irritation of the formulations using Neutrogena Ultra Gentle Daily Cleanser and PanOxyl 10 (Placebo) as the comparators. The results are shown in FIG. 2 for the 2.5% BPO formulations and FIG. 3 for the 10% BPO formulations. Sodium Lauryl […] (SLS) was used as the positive control. […] All 6 formulations outperformed Neutrogena Ultra Gentle with formulation #3(2.5%) being more than 3 fold milder than Neutrogena Ultra Gentle cleanser. The 2.5% prototypes were slightly milder than the 10% formulations. This is expected due to higher concentration of the surfactants in the 10% formulations.

[3] = BPO chemical stability in wash formulations and shelf life prediction; assay type: physicochemical; details: increasing sorbitol concentrations in wash formulations
Description: BPO stability in the formulations of the present invention were assessed over time at 25° C./60% RH and 30° C./65% RH using environmentally controlled chambers. Specifically formulations containing 2.5% BPO or 10% BPO in glass vials were placed on stability, and monitored for BPO degradation.
Chemical stability of the BPO in surfactant based wash products is a challenge due to increased solubility of the BPO in these systems.

[4] = HaCaT cell viability, 10 minutes treatment, left = mildest, SLS positive control

Row | Molecule | rank order of screened surfactants for mildness, based on EC 50 values [2, 4] | also measured
1 | O=C(OOC(=O)c1ccccc1)c1ccccc1 [BPO, Benzoyl peroxide] | – | degradation of benzoyl peroxide in suspension (dispersed form) [1]: not degraded
2 | Cocamidopropyl PG-Dimonium Chloride Phosphate [Cola Lipid C] | > SLS | –
3 | Sodium Laurylglucoside Hydroxypropylsufonate [Suganate 160 NC] | – | rank order of screened surfactants for mildness, based on EC 50 values [2]: > Plantaren 2000 N UP
4 | OC[C@@H](O)[C@@H](O)[C@H](O)[C@@H](O)CO [sorbitol, D-Sorbitol] | – | effect of humectant on BPO stability (benzoic acid generated) [3]: improve BPO stability
5 | Sodium Hydroxyethylglycinate cocoglucoside crosspolymer and sodium bis-hydroxytethylglycinate lauryl glucoside crosspolymer [PolySuga Glycinate C] | – | rank order of screened surfactants for mildness, based on EC 50 values [2]: > PolySuga Phos 1200P
6 | CCCCCCCCCCO[C@@H]1O[C@H](CO)[C@@H](O)[C@H](O)[C@H]1O [Plantaren 2000 N UP, decyl glucoside] | > Colonial AOS | –
7 | Sodium C14-C17 sec-alkyl sulfonate [Hostapur SAS 60] | SLS | –
8 | sodium C14-16 Olefin sulfonate [Colonial AOS] | > Cola Lipid C | –
